Measured values reported in patent US20210311024A1, “NON-CLINICAL TEST METHOD CHARACTERIZED BY QUANTITATIVE EVALUATION OF EXPERIMENTAL ANIMAL SPECIMEN” (Konica Minolta, Inc., priority 2016, published 2021).

Legend:
Type in all cases: in vivo
[1] = system: PDX mice each transplanted with the breast cancer tissue of one of six patients (A to F); assay: Lapatinib drug efficacy (tumor volume) in breast cancer PDX mice, Example 1; details: 100 mg/kg i.v. twice a day, 42 times; for Tumor size (size at the start of administration is taken as 100%): 21 days after first administration
Procedure: To each of these PDX mice, 100 mg/kg of lapatinib (Trade name: Tykerb) was administered intravenously twice a day, for a total of 42 times. The measurement of the tumor volume was carried out before the administration and 21 days after the first administration. At the same time, a tissue section was collected from each mouse using a frozen needle, at each time point. The collected tissue sections were subjected to a formalin fixation treatment and a paraffin-embedding treatment, and then sliced to prepare sample slides, according to conventional methods. The thus prepared sample slides were used for the quantification of the expression level of HER2 as the target protein.

[2] = system: PDX mice each transplanted with the breast cancer tissue of one of six patients (A to F); assay: Lapatinib drug efficacy in PDX mice selected for low CD140a score, Example 4; details: three mice per group selected for low CD140a score; 100 mg/kg i.v. twice a day, 42 times; 21 days after first administration
Procedure: PDX mice each transplanted with the breast cancer tissue (volume: about 200 mm^3) of one of six patients (A to F), which were the same as those used in Example 1, were purchased, five mice for each of the patients. These PDX mice were reared, and the size of the tumor in each mouse was measured every 3 or 4 days. When the tumor volume reached 500 mm^3, tumor tissue was collected from each mouse using a scalpel.
The observation and image capture of the immunostained images and the stained images for morphological observation were carried out in the same manner as in Example 1, to measure the PID score or the DAB score of CD140a. […]
To each of the thus selected three PDX mice, in each group, 100 mg/kg of lapatinib (trade name: Tykerb) was administered intravenously twice a day, for a total of 42 times, in the same manner as in Example 1, and the tumor volume was measured before the first administration, and 21 days after the first administration. […] The collected tissue sections were used for the quantification of the expression level of HER2 protein as the target protein, in the same manner as in Example 1.

[3] = system: hemato-lymphoid humanized model mice transplanted with tumor tissue of lung cancer patients; assay: Nivolumab drug efficacy in hemato-lymphoid humanized model mice transplanted with lung cancer tissue, Example 5; details: 100 mg/kg i.v. twice a day, 42 times; 21 days after first administration
Text: Hemato-lymphoid humanized mice, produced by transplanting human hematopoietic stem cells into mice with acquired immune deficiency, were transplanted with tumor tissue, to prepare hemato-lymphoid humanized model mice, which are one type of patient-derived tumor-transplanted mice. Tumor tissues collected from six lung cancer patients were purchased from SofiaBio, and the thus produced hemato-lymphoid humanized mice were each subcutaneously transplanted with the tumor tissue, having a size of 2 mm square, of one of the patients (five mice transplanted with the tumor tissue of one patient were produced for each of the patients). To each of the model mice whose tumor tissue had grown to the size of about 300 mm^3 one month after the transplantation, 100 mg/kg of an anti-human PD-1 monoclonal antibody preparation, nivolumab (trade name: Opdivo) was administered intravenously twice a day, for a total of 42 times. In the same manner as in Example 1, the tumor volume was measured before the first administration and 21 days after the first administration. At the same time, a tissue section was collected from each of the mice, and sample slides were prepared in the same manner as in Example 1. […]

| Molecule | Tumor size (size at the start of administration is taken as 100%) ([1]; Sample A (PID score 10, DAB score — before administration)) [%] | Tumor size (size at the start of administration is taken as 100%) ([1]; Sample B (PID score 30, DAB score 1+ before administration)) [%] | Tumor size (size at the start of administration is taken as 100%) ([1]; Sample C (PID score 100, DAB score 2+ before administration)) [%] | Tumor size (size at the start of administration is taken as 100%) ([1]; Sample D (PID score 200, DAB score 3+ before administration)) [%] | Tumor size (size at the start of administration is taken as 100%) ([1]; Sample E (PID score 400, DAB score 3+ before administration)) [%] | Tumor size (size at the start of administration is taken as 100%) ([1]; Sample F (PID score 800, DAB score 3+ before administration)) [%] | drug efficacy (effect of reducing the tumor size) in relation to PID score ([1]; among the PDX mice having the same DAB score of 3+) | drug efficacy (effect of reducing the tumor size) in relation to PID score of HER2 protein [2] | drug efficacy (effect of reducing the tumor size) in relation to PID score of PD-L1 protein [3] |
| --- | --- | --- | --- | --- | --- | --- | --- | --- | --- |
| CS(=O)(=O)CCNCc1ccc(-c2ccc3ncnc(Nc4ccc(OCc5cccc(F)c5)c(Cl)c4)c3c2)o1 [Lapatinib, lapatinib] | 180 | 120 | 80 | 70 | 60 | 10 | increased drug efficacy (effect of reducing the tumor size) of lapatinib tend to be observed in a PDX mouse having a higher PID score | increased drug efficacy (effect of reducing the tumor size) of lapatinib tend to be observed in a PDX mouse having a higher PID score of HER2 protein | – |
| nivolumab | – | – | – | – | – | – | – | – | increased drug efficacy (effect of reducing the tumor size) of nivolumab tend to be observed in a PDX mouse having a higher PID score of PD-L1 protein |
